Measured values published in US20240425523A1, “Compounds for the Degradation of EGFR Kinase” (Beigene Switzerland GMBH, priority 2023, published 2024).
pIC50: −log10 of the molar value.

Tests used:
Format in all cases: cell-based
[1] = biological target: T1, p-EGFR L858R (BaF3-L858R cells) (Homo sapiens, UniProt P00533, L858R); assay: Cell p-EGFR inhibition assay, HTRF, BaF3-L858R cells; details: 16 h treatment; for Imax (%): maximum percentage of pEGFR inhibition; for pIC50: pEGFR inhibition
T1 construct: host or cells: BaF3
Procedure, shortened: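 BaF3-L858R cells treated 16 h at 37 °C, 5% CO2 with compound from 10 uM top, 5-fold dilutions, 8 doses, in 0.1% DMSO medium. Lysates read overnight by HTRF p-EGFR antibodies; IC50 fitted to four-parameter curve against DMSO high control.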

[2] = biological target: T2, EGFR L858R (BaF3-L858R cells) (Homo sapiens, UniProt P00533, L858R); assay: Cell degradation of EGFR, HTRF assay, BaF3-L858R cells; details: 16 h treatment; for DC50: EGFR degradation
T2 construct: host or cells: BaF3
Procedure, shortened: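 BaF3-L858R cells treated 16 h at 37° C, 5% CO2 with compound (top 10 uM final, 5-fold, 8 doses, 0.1% DMSO). DC50 from four-parameter fit; Dmax is maximum percent degradation.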

[3] = biological target: T3, EGFR-L858R/C797S (H1975-clone #8 cells) (Homo sapiens, UniProt P00533, C797S/L858R); assay: Cell degradation of EGFR, HTRF assay, H1975-clone#8 (L858R/C797S) cells; details: 16 h treatment; for DC50: EGFR degradation
T3 construct: expressed in transfected cells; host or cells: H1975 (endogenous EGFR knocked out, clone #8)

[4] = biological target: p-EGFR Del19/C797S (H1975-clone #23 cells) (Homo sapiens, UniProt P00533); assay: Cell p-EGFR inhibition assay, HTRF, H1975-clone#23 (DEL19/C797S) cells; details: 16 h treatment; for Imax (%): maximum percentage of pEGFR inhibition; for pIC50: pEGFR inhibition
Procedure, shortened: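 Phospho-EGFR read by overnight HTRF on lysates, normalized to DMSO-treated high control; IC50, Hill slope and Imax fitted. Compounds were applied for 16 h (10 uM top, 5-fold steps, 8 doses) to an H1975 single clone carrying only exogenous Del19/C797S EGFR after sgRNA knockout of endogenous copies.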

[5] = maximum percentage of degradation

Imax (%) [1] | pIC50 [1] | DC50 [2] | Dmax [2, 5] | DC50 [3] | Dmax [3, 5] | Imax (%) [4] | pIC50 [4] | Compound | Dmax (%) [2, 5] | Dmax (%) [3, 5]
100.3% | 8.10 | 1.06 nM | 82.3% | 6 nM | 85.6% | 99.2% | 8.66 | Cc1cc2cc(n1)-c1c(C(F)F)nn(C)c1OC[C@H]1CCC(C1)CN1/C(=N/C2=O)Nc2ccc(N3CCN(C4CCN(c5c(F)cc(NC6CCC(=O)NC6=O)cc5F)CC4)CC3)cc21 (some centres unmarked) [Example 99, 3-((4-(4-(4-((7^1R,7^3S,E)-1^3-(difluoromethyl)-1^1,2^6-dimethyl-3-oxo-5^2,5^3-dihydro-1^1H,5^1H-9-oxa-4-aza-5(2,1)-benzo[d]imidazola-2(2,4)-pyridina-1(4,5)-pyrazola-7(1,3)-cyclopentanacyclononaphane-5^6-yl)piperazin-1-yl)piperidin-1-yl)-3,5-difluorophenyl)amino)piperidine-2,6-dione] | – | –
94.16% | 7.82 | 8.27 nM | 89% | 10.7 nM | 85.4% | 101.78% | 8.44 | COC[C@H]1CN(c2ccc3c(c2)N2C[C@@H]4CC[C@H](COc5c(c(C)nn5C)-c5cc(cc(Cl)n5)C(=O)/N=C/2N3)C4)CCN1C1CCN(c2cc(F)c([C@H]3CCC(=O)NC3=O)c(F)c2)CC1 [Example 176, (R)-3-(4-(4-((R)-4-((7^1R,7^3S,E)-2^6-chloro-1^1,1^3-dimethyl-3-oxo-5^2,5^3-dihydro-1^1H,5^1H-9-oxa-4-aza-5(2,1)-benzo[d]imidazola-2(2,4)-pyridina-1(4,5)-pyrazola-7(1,3)-cyclopentanacyclononaphane-5^6-yl)-2-(methoxymethyl)piperazin-1-yl)piperidin-1-yl)-2,6-difluorophenyl)piperidine-2,6-dione] | – | –
97.2% | 8.00 | 1.97 nM | 85.8% | 3.12 nM | 79.8% | 100.1% | 9.00 | Cc1cc2cc(n1)-c1cnn(C)c1OC[C@H]1CCC(C1)CN1/C(=N/C2=O)Nc2ccc(N3CCN(C4CCN(c5c(F)cc(NC6CCC(=O)NC6=O)cc5F)CC4)CC3)cc21 (some centres unmarked) [Example 92, 3-((4-(4-(4-((7^1R,7^3S,E)-1^1,2^6-dimethyl-3-oxo-5^2,5^3-dihydro-1^1H,5^1H-9-oxa-4-aza-5(2,1)-benzo[d]imidazola-2(2,4)-pyridina-1(4,5)-pyrazola-7(1,3)-cyclopentanacyclononaphane-5^6-yl)piperazin-1-yl)piperidin-1-yl)-3,5-difluorophenyl)amino)piperidine-2,6-dione] | – | –
91.9% | 8.51 | 0.31 nM | 74.1% | 0.8 nM | 89.2% | 101.1% | 8.96 | Cc1cc2cc(n1)-c1c(C)nn(C)c1OC[C@H]1CCC(C1)CN1/C(=N/C2=O)Nc2ccc(N3CCN([C@@H]4CCN(c5cc(F)c(C6CCC(=O)NC6=O)nc5C)C[C@@H]4F)CC3)cc21 (stereo partly drawn) [Example 82, 3-(3-fluoro-5-((3S,4R)-3-fluoro-4-(4-((7^1R,7^3S,E)-1^1,1^3,2^6-trimethyl-3-oxo-5^2,5^3-dihydro-1^1H,5^1H-9-oxa-4-aza-5(2,1)-benzo[d]imidazola-2(2,4)-pyridina-1(4,5)-pyrazola-7(1,3)-cyclopentanacyclononaphane-5^6-yl)piperazin-1-yl)piperidin-1-yl)-6-methylpyridin-2-yl)piperidine-2,6-dione] | – | –
98.51% | 8.55 | 4.07 nM | 88.7% | 7.25 nM | 83.9% | 100.72% | 8.89 | CCc1nn(C)c2c1-c1cc(cc(C)n1)C(=O)/N=C1\Nc3ccc(N4CCN(C5CCN(c6cc(F)c([C@H]7CCC(=O)NC7=O)c(F)c6)CC5)[C@@H](COC)C4)cc3N1C[C@@H]1CC[C@H](CO2)C1 [Example 175, (R)-3-(4-(4-((R)-4-((7^1R,7^3S,E)-1^3-ethyl-1^1,2^6-dimethyl-3-oxo-5^2,5^3-dihydro-1^1H,5^1H-9-oxa-4-aza-5(2,1)-benzo[d]imidazola-2(2,4)-pyridina-1(4,5)-pyrazola-7(1,3)-cyclopentanacyclononaphane-5^6-yl)-2-(methoxymethyl)piperazin-1-yl)piperidin-1-yl)-2,6-difluorophenyl)piperidine-2,6-dione] | – | –
92.8% | 8.49 | 0.4 nM | 91.6% | 0.64 nM | 76.6% | 101.7% | 9.22 | Cc1cc2cc(n1)-c1c(C)nn(C)c1OC[C@H]1CCC(C1)CN1/C(=N/C2=O)Nc2ccc(N3CCN(C4CCN(c5ccc(C6CCC(=O)NC6=O)nc5C)CC4)CC3)cc21 (some centres unmarked) [Example 72, 3-(6-methyl-5-(4-(4-((7^1R,7^3S,E)-1^1,1^3,2^6-trimethyl-3-oxo-5^2,5^3-dihydro-1^1H,5^1H-9-oxa-4-aza-5(2,1)-benzo[d]imidazola-2(2,4)-pyridina-1(4,5)-pyrazola-7(1,3)-cyclopentanacyclononaphane-5^6-yl)piperazin-1-yl)piperidin-1-yl)pyridin-2-yl)piperidine-2,6-dione] | – | –
99.7% | 8.10 | 1.75 nM | 73.9% | 1.64 nM | 87.5% | 101.2% | 8.72 | COC[C@@H]1CN(c2ccc3c(c2)N2C[C@@H]4CC[C@H](COc5c(c(C)nn5C)-c5cc(cc(C)n5)C(=O)/N=C/2N3)C4)CCN1C1CCN(c2cc(F)c(C3CCC(=O)NC3=O)nc2C)CC1 (stereo partly drawn) [Example 89, 3-(3-fluoro-5-(4-((S)-2-(methoxymethyl)-4-((7^1R,7^3S,E)-1^1,1^3,2^6-trimethyl-3-oxo-5^2,5^3-dihydro-1^1H,5^1H-9-oxa-4-aza-5(2,1)-benzo[d]imidazola-2(2,4)-pyridina-1(4,5)-pyrazola-7(1,3)-cyclopentanacyclononaphane-5^6-yl)piperazin-1-yl)piperidin-1-yl)-6-methylpyridin-2-yl)piperidine-2,6-dione] | – | –
99.3% | 7.97 | 8.5 nM | 86.5% | 12.1 nM | 79% | 101% | 8.35 | COC[C@H]1CN(c2ccc3c(c2)N2CC4CC[C@H](COc5c(c(C(F)(F)F)nn5C)-c5cc(cc(C)n5)C(=O)/N=C/2N3)C4)CCN1C1CCN(c2cc(F)c([C@H]3CCC(=O)NC3=O)c(F)c2)CC1 [Example 95, (R)-3-(4-(4-((R)-4-((7^1R,7^3S,E)-1^1,2^6-dimethyl-3-oxo-1^3-(trifluoromethyl)-5^2,5^3-dihydro-1^1H,5^1H-9-oxa-4-aza-5(2,1)-benzo[d]imidazola-2(2,4)-pyridina-1(4,5)-pyrazola-7(1,3)-cyclopentanacyclononaphane-5^6-yl)-2-(methoxymethyl)piperazin-1-yl)piperidin-1-yl)-2,6-difluorophenyl)piperidine-2,6-dione] | – | –
91.3% | 7.96 | 3.4 nM | 89.5% | 5.5 nM | 85.7% | 99.2% | 8.02 | COC[C@@H]1CN(c2ccc3c(c2)N2CC4CC[C@H](COc5c(c(C(F)(F)F)nn5C)-c5cc(cc(C)n5)C(=O)/N=C/2N3)C4)CCN1C1CCN(c2cc(F)c([C@H]3CCC(=O)NC3=O)c(F)c2)CC1 [Example 77, (R)-3-(4-(4-((S)-4-((7^1R,7^3S,E)-1^1,2^6-dimethyl-3-oxo-1^3-(trifluoromethyl)-5^2,5^3-dihydro-1^1H,5^1H-9-oxa-4-aza-5(2,1)-benzo[d]imidazola-2(2,4)-pyridina-1(4,5)-pyrazola-7(1,3)-cyclopentanacyclononaphane-5^6-yl)-2-(methoxymethyl)piperazin-1-yl)piperidin-1-yl)-2,6-difluorophenyl)piperidine-2,6-dione] | – | –

Compound | Imax (%) [1] | pIC50 [1] | DC50 [2] | Dmax [2, 5] | DC50 [3] | Dmax [3, 5] | Imax (%) [4] | pIC50 [4] | Dmax (%) [2, 5] | Dmax (%) [3, 5]
3-((5-(4-((S)-2-(methoxymethyl)-4-((7^1R,7^3S,E)-1^1,1^3,2^6-trimethyl-3-oxo-5^2,5^3-dihydro-1^1H,5^1H-9-oxa-4-aza-5(2,1)-benzo[d]imidazola-2(2,4)-pyridina-1(4,5)-pyrazola-7(1,3)-cyclopentanacyclononaphane-5^6-yl)piperazin-1-yl)piperidin-1-yl)-4,6-dimethylpyridin-2-yl)oxy)piperidine-2,6-dione [Example 167] | 98.09% | 8.16 | 4.72 nM | – | 4.33 nM | – | 102.84% | 8.52 | 83.25% | 88.56%
